# Patent US20230017532A1 (Hoffmann-La Roche Inc., priority 2018, published 2023)
# Structures can show the parent of a compound that is named as a salt.
# Test system: Acinetobacter baumannii ATCC17978
# Test: Antimicrobial susceptibility testing: 90% growth inhibitory concentration (IC90) determination, Iso-Sensitest broth, OD 600 nm
# Format: cell-based
# Details: 90% growth inhibitory concentration, Acinetobacter baumannii ATCC17978, Iso-Sensitest broth, OD 600 nm over 16 h; read-out: ATCC 17978 IC90
# Outline: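 Twofold serial dilutions (e.g. 50–0.097 μM final) incubated with ~5×10^5 CFU/ml in Iso-Sensitest broth at 35±2 °C. OD600 read every 20 min for 16 h; IC90 derived from growth inhibition during logarithmic phase.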
row,IC90 [nM],Compound
1,230,COc1ccc(-c2cnc3c(Nc4ccc(C(=O)NCCOCCN)c(C)c4)nccn23)cc1 [Example 77]
2,180,"CCc1cc(Nc2nccn3c(-c4ccc(Cl)c(F)c4F)cnc23)ccc1C(=O)NCCOCCN [Example 87, N-[2-(2-aminoethoxy)ethyl]-4-[[3-(4-chloro-2,3-difluoro-phenyl)imidazo [1,2-a]pyrazin-8-yl]amino]-2-ethylbenzamide]"

# Same assay, conditions: Acinetobacter baumannii, ATCC17978, 16 h, 90% growth inhibitory concentration, Acinetobacter baumannii ATCC17978, Iso-Sensitest broth, OD 600 nm over 16 h; read-out: ATCC 17978 IC90
row,Compound,IC90 [nM]
1,"COc1ccc(-c2cnc3c(Nc4ccc(C(=O)NCCOCCn5ccnn5)c(C)c4)nccn23)cc1 [Example 107, 4-[[3-(4-methoxyphenyl)imidazo[1,2-a]pyrazin-8-yl]amino]-2-methyl-N-[2-[2-(triazol-1-yl)ethoxy]ethyl] benzamide]",500
2,"CNCCOCCNC(=O)c1ccc(Nc2nccn3c(-c4ccc(OC)cc4)cnc23)cc1C [Example 39, 4-((3-(4-methoxyphenyl)imidazo[1,2-a]pyrazin-8-yl)amino)-2-methyl-N-(2-(2-(methylamino)ethoxy)ethyl)benzamide]",260
3,"Cc1cc(Nc2nccn3c(-c4ccc(OC(F)F)cc4)cnc23)ccc1C(=O)N(C)CCOCCN [Example 136, N-[2-(2-aminoethoxy)ethyl]-4-[[3-[4-(difluoro-methoxy)phenyl]imidazo [1,2-a]pyrazin-8-yl]amino]-N,2-dimethyl-benzamide; hydrochloride]",860
4,"COc1ccc(-c2cnc3c(Nc4ccc(C(=O)N(C)CCOCCN5CCOC(CN)C5)c(C)c4)nccn23)cc1F (centres unmarked) [Example 137, N-[2-[2-[2-(aminomethyl)morpholin-4-yl]ethoxy]ethyl]-4-[[3-(3-fluoro-4-methoxyphenyl)imidazo[1,2-a]pyrazin-8-yl]amino]-N,2-dimethyl-benzamide; hydrochloride]",940
5,"Cc1cc(Nc2nccn3c(-c4ccc(OC(F)F)cc4)cnc23)ccc1C(=O)NCCOCCNC(=O)CN(CCO)CCO [Example 146, N-[2-[2-[[2-[bis(2-hydroxyethyl)amino]acetyl]amino]ethoxy]ethyl]-4-[[3-[4-(difluoromethoxy)phenyl]imidazo [1,2-a]pyrazin-8-yl]amino]-2-methylbenzamide]",1200
6,"Cc1cc(Nc2nccn3c(-c4ccc(OC(F)F)cc4)cnc23)ccc1C(=O)NCC[S+]([O-])CCN (centres unmarked) [Example 47, N-(2-((2-Aminoethyl)sulfinyl)ethyl)-4-((3-(4-(difluoromethoxy)phenyl)imidazo[1,2-a]pyrazin-8-yl)amino)-2-methylbenzamide]",920
7,"CCNCCCN(CC)C(=O)c1ccc(Nc2nccn3c(-c4ccc(OC)c(F)c4)cnc23)cc1C [Example 128, N-ethyl-N-[3-(ethylamino)propyl]-4-[[3-(3-fluoro-4-methoxyphenyl)imidazo[1,2-a]pyrazin-8-yl]amino]-2-methyl-benzamide]",3400
8,"COc1ccc(-c2cnc3c(Nc4ccc(C(=O)NCCOCCCl)c(C)c4)nccn23)cc1 [Example 8, N-(2-(2-chloroethoxy)ethyl)-4-((3-(4-methoxyphenyl)imidazo[1,2-a]pyrazin-8-yl)amino)-2-methylbenzamide]",630
9,"Cc1cc(Nc2nccn3c(-c4ccc(OCC#CCN)cc4)cnc23)ccc1C(=O)NCCOCCN [Example 123, 4-[[3-[4-(4-aminobut-2-ynoxy)phenyl]imidazo[1,2-a]pyrazin-8-yl]amino]-N-[2-(2-aminoethoxy)ethyl]-2-methylbenzamide; formic acid]",630
10,"COc1ccc(-c2cnc3c(Nc4ccc(C(=O)N(C)CCOCCN5CCN(C6COC6)CC5)c(C)c4)nccn23)cc1F [Example 151, 4-[[3-(3-fluoro-4-methoxyphenyl)imidazo[1,2-a]pyrazin-8-yl]amino]-N,2-dimethyl-N-[2-[2-[4-(oxetan-3-yl)piperazin-1-yl]ethoxy]ethyl] benzamide]",1600
11,"Cc1cc(Nc2nccn3c(-c4ccc(OC(F)F)cc4)cnc23)ccc1C(=O)NCCOCCOCCN [Example 16, N-(2-(2-(2-aminoethoxy)ethoxy)ethyl)-4-((3-(4-(difluoromethoxy)phenyl)imidazo[1,2-a]pyrazin-8-yl)amino)-2-methylbenzamide]",570
12,"Cc1cc(Nc2nccn3c(-c4ccc(OC(F)F)cc4)cnc23)ccc1C(=O)NCCOCCS(C)(=O)=O [Example 132, 4-[[3-[4-(difluoro-methoxy)phenyl]imidazo [1,2-a]pyrazin-8-yl]amino]-2-methyl-N-[2-(2-methylsulfonyl-ethoxy)ethyl] benzamide]",780
13,"COc1ccc(-c2cnc3c(Nc4ccc(C(=O)NCCSCCN)c(C)c4)nccn23)cc1F [Example 25, N-(2-((2-aminoethyl)thio)ethyl)-4-((3-(3-fluoro-4-methoxyphenyl)imidazo[1,2-a]pyrazin-8-yl)amino)-2-methylbenzamide]",150
14,"COc1ccc(-c2cnc3c(Nc4ccc(C(=O)NCCNCCN)c(C)c4)nccn23)cc1 [Example 104, N-[2-(2-aminoethylamino)ethyl]-4-[[3-(4-methoxyphenyl)imidazo[1,2-a]pyrazin-8-yl]amino]-2-methylbenzamide; hydrochloride]",480
15,"Cc1cc(Nc2nccn3c(-c4ccc(OC(F)F)cc4)cnc23)ccc1C(=O)NCCOCC(N)=O [Example 10, N-(2-(2-amino-2-oxoethoxy)ethyl)-4-((3-(4-(difluoromethoxy)phenyl)imidazo[1,2-a]pyrazin-8-yl)amino)-2-methylbenzamide]",170

# Results, then the compound that gave them:
row,IC90 [nM],Compound
1,1200,"CN(CCOCCN1CCCC(C(=O)O)C1)C(=O)c1ccc(Nc2nccn3c(-c4ccc(OCC#N)c(F)c4F)cnc23)cc1Cl (centres unmarked) [Example 176, 1-[2-[2-[[2-chloro-4-[[3-[4-(cyanomethoxy)-2,3-difluorophenyl]imidazo[1,2-a]pyrazin-8-yl]amino]benzoyl]-methylamino]ethoxy]ethyl] piperidine-3-carboxylic acid; formic acid]"
2,570,"COc1ccc(-c2cnc3c(Nc4ccc(C(=O)N(C)CCOCCN5CCNCC5)c(Cl)c4)nccn23)cc1F [Example 163, 2-chloro-4-[[3-(3-fluoro-4-methoxyphenyl)imidazo[1,2-a]pyrazin-8-yl]amino]-N-methyl-N-[2-(2-piperazin-1-ylethoxy)ethyl] benzamide; hydrochloride]"
3,250,"COc1ccc(-c2cnc3c(Nc4ccc(C(=O)NCCOCCN5CC6(COC6)C5)c(C)c4)nccn23)cc1 [Example 42, N-(2-(2-(2-oxa-6-azaspiro[3.3]heptan-6-yl)ethoxy)ethyl)-4-((3-(4-methoxyphenyl)imidazo[1,2-a]pyrazin-8-yl)amino)-2-methylbenzamide]"
4,490,"C#CCOc1ccc(-c2cnc3c(Nc4ccc(C(=O)NCCNCCO)c(CC)c4)nccn23)c(F)c1F [Example 195, 4-[[3-(2,3-difluoro-4-prop-2-ynoxy-phenyl)imidazo[1,2-a]pyrazin-8-yl]amino]-2-ethyl-N-[2-(2-hydroxyethyl-amino)ethyl] benzamide]"
5,1200,"COc1ccc(-c2cnc3c(Nc4ccc(C(=O)NCCOCCN)c(F)c4)nccn23)cc1 [Example 145, N-[2-(2-aminoethoxy)ethyl]-2-fluoro-4-[[3-(4-methoxyphenyl)imidazo[1,2-a]pyrazin-8-yl]amino] benzamide; hydrochloride]"
6,530,"COc1ccc(-c2cnc3c(Nc4ccc(C(=O)N(C)CCOCCN5CCS(=O)(=O)CC5)c(C)c4)nccn23)cc1F [Example 110, N-[2-[2-(1,1-dioxo-1,4-thiazinan-4-yl)ethoxy]ethyl]-4-[[3-(3-fluoro-4-methoxyphenyl)imidazo[1,2-a]pyrazin-8-yl]amino]-N,2-dimethyl-benzamide]"
7,560,"CCN(C(=O)NCCCN(C)C)C(=O)c1ccc(Nc2nccn3c(-c4ccc(OCC#N)c(F)c4F)cnc23)cc1Cl [Example 27, 2-chloro-4-[[3-[4-(cyanomethoxy)-2,3-difluoro-phenyl]imidazo[1,2-a]pyrazin-8-yl]amino]-N-[3-(dimethylamino)propylcarbamoyl]-N-ethyl-benzamide]"
8,57,"COc1ccc(-c2cnc3c(Nc4ccc(C(=O)NCCOCCN)c(Cl)c4)nccn23)c(F)c1F [Example 18, N-(2-(2-aminoethoxy)ethyl)-2-chloro-4-((3-(2,3-difluoro-4-methoxyphenyl)imidazo[1,2-a]pyrazin-8-yl)amino)benzamide]"
9,120,"COc1ccc(-c2cnc3c(Nc4ccc(C(=O)NCCOCCN5CCNCC5)c(Cl)c4)nccn23)c(F)c1F [Example 1, 2-chloro-4-[[3-(2,3-difluoro-4-methoxyphenyl)imidazo[1,2-a]pyrazin-8-yl]amino]-N-[2-(2-piperazin-1-ylethoxy)ethyl]benzamide;2,2,2-trifluoroacetic acid]"

# Same assay, conditions: Acinetobacter baumannii, ATCC17978, 16 h, read-out: ATCC 17978 IC90
row,Compound,IC90 [nM]
1,"CCc1cc(Nc2nccn3c(-c4ccc(OC(F)F)c(F)c4F)cnc23)ccc1C(=O)NCCOCCO[C@H]1O[C@H](CO)[C@H](O)[C@H](O)[C@H]1O [Example 194, 4-((3-(4-(difluoro-methoxy)-2,3-difluorophenyl)imidazo[1,2-a]pyrazin-8-yl)amino)-2-ethyl-N-(2-(2-(((2S,3R, 4S,5R,6R)-3,4,5-trihydroxy-6-(hydroxymethyl)tetrahydro-2H-pyran-2-yl)oxy)ethoxy)ethyl) benzamide formate]",350
2,"CCc1cc(Nc2nccn3c(-c4ccc(OC)cc4N)cnc23)ccc1C(=O)NCCOCCN [Example 57, 4-((3-(2-amino-4-methoxyphenyl)imidazo[1,2-a]pyrazin-8-yl)amino)-N-(2-(2-aminoethoxy)ethyl)-2-ethylbenzamide hydrochloride]",650
3,"CCc1cc(Nc2nccn3c(-c4ccc(OC)c(F)c4F)cnc23)ccc1C(=O)NCCOC(C)(C)CN [Example 71, N-[2-(2-amino-1,1-dimethyl-ethoxy)ethyl]-4-[[3-(2,3-difluoro-4-methoxy-phenyl)imidazo[1,2-a]pyrazin-8-yl]amino]-2-ethyl-benzamide; formic acid]",28
